The source of these data is patent US9328122B2, “7-substituted Hanfangichin B derivative, and preparation method and use thereof” (HANGZHOU BENSHENG PHARMACEUTICAL CO., LTD., priority 2012, dated 2016).

Values after ≈ are worked out from the molar mass of the structure shown. Structures can show the parent of a compound that is named as a salt.

Data set [1] deals with Hep G2 transplanted tumor. As to the kind of experiment: Transplanted tumor of liver cancer in nude mice. The conditions noted are these: BS-FC-308 35 mg/kg/time, erlotinib hydrochloride 20 mg/kg/time.
Procedure: Liver cancer cell lines: Hep G2 (human liver cancer cell line);
Animal: BALBc nude mice (immunodeficient mice), 8 weeks, female, purchased from Shanghai Laboratory Animal Center of Chinese Academy of Sciences, China.
Under sterile conditions, the Hep G2 cells in the logarithmic growth phase were respectively collected and injected subcutaneously in an amount of 2.3×10^7/0.2 mL/nude mice (cell viability >90%) into the left subaxillary of the nude mice, thus establishing a transplanted tumor model of liver cancer in nude mice. The mice were administered from the second day after inoculation. The experimental group was intragastrically administered with the experimentally designed amount, the negative control group was intragastrically administered with sterile water, and the positive control group was intragastrically administered with erlotinib hydrochloride. Each mouse was intragastrically administered in 0.4 ml each time and 3 times a day, at 8:00, 14:00 and 20:00, with 6-hour intervals. The administrations were successive for 10 days. The day before administration was deemed as Day 0 and the weight and tumor size of the mice were determined every 5 days to produce a dynamic plot on weight and tumor growth (the experimental results are presented as mean±SD). On Day 28, the mice were sacrificed and the tumors were taken out and weighed. The tumor inhibition rate (%) after the effect of the medicament was calculated based on a tumor inhibition rate of the control group being zero.
The experimental data for each group were analyzed by using the One-way ANOVA method in the SPSS 19.0 statistical software and were compared with the control group for significance of difference.
Data set [2] has as its system human colon cancer cell line LoVo. The following applies: LoVo tumor-bearing nude mice, 60 days; cited from earlier work.
Data set [3] relates to CNE (nasopharyngeal carcinoma) cells. The data set can be described thus: MTT cell growth inhibition, solid tumor cells. The following applies: Homo sapiens, 72 h. The class given is cell-based, human. An excerpt: (§1) Hep-2 (laryngeal carcinoma), A549 (human lung cancer), CaES-17 (esophageal cancer cell), PC-3 (prostate cancer), CNE (nasopharyngeal carcinoma cell) and SK-OV-3 (ovarian cancer cell), all of which were purchased from China Center For Type Culture Collection; RKO (human colon adenocarcinoma cell), MGC-803 (human gastric cancer cell), MG-63 (osteosarcoma), and U87-MG (malignant glioma cell), all of which were purchased from Fuxiang Bio-tech Co. Ltd., Shanghai, China; PANC-1 (pancreatic cancer), Becap37 (human breast cancer cell), Hela (human cervical cancer cell) and Hep G2 (human liver cancer cell), all of which were donated by Cancer Research Institute of Zhejiang University, China.
(§2) 6000 well-growing human solid tumor cells were obtained and inoculated into wells of a 96-well cell culture plate. The culture medium was DMEM High Glucose cell culture medium containing 10% fetal bovine serum. The plate was placed in a carbon dioxide cell incubator (5% CO2) at 37° C. and incubated for 24 hours. After added with 7-substituted fangchinoline derivatives of different concentration and mixing uniformly, the plate was placed in a carbon dioxide cell incubator (5% CO2) at 37° C. and incubated for 72 hours. Then the viable cell concentration was determined by the MTT method.

The test system of data set [4] is SK-OV-3 (ovarian cancer) cells. As to the kind of experiment: MTT cell growth inhibition, solid tumor cells. The conditions noted are these: Homo sapiens, SK-OV-3, 72 h. The class given is cell-based, human.
Excerpt: as §1, §2

Data set [5] deals with CaEs-17 (esophageal cancer) cells. As to the kind of experiment: MTT cell growth inhibition, solid tumor cells. The following applies: Homo sapiens, CaEs17, 72 h. The class given is cell-based, human.
Excerpt: as §1, §2

Data set [6] concerns PANC-1 (pancreatic cancer) cells. As to the kind of experiment: MTT cell growth inhibition, solid tumor cells. It counts as cell-based, human. The conditions noted are these: Homo sapiens, PANC-1, 72 h.
Excerpt: as §1, §2

For data set [7], the system named is PC-3 (prostate cancer) cells. The data set can be described thus: MTT cell growth inhibition, solid tumor cells. The class given is cell-based, human. The conditions noted are these: Homo sapiens, 72 h.
Excerpt: as §1, §2

The test system of data set [8] is A549 (human lung cancer) cells. The data set can be described thus: MTT cell growth inhibition, solid tumor cells. The class given is cell-based. The conditions noted are these: Homo sapiens, A549, 72 h.
Excerpt: as §1, §2

Data set [9] has as its system MG-63 (osteosarcoma) cells. As to the kind of experiment: MTT cell growth inhibition, solid tumor cells. The class given is cell-based. The following applies: Homo sapiens, MG-63, 72 h.
Excerpt: as §1, §2

Data set [10] relates to RKO (human colon adenocarcinoma) cells. As to the kind of experiment: MTT cell growth inhibition, solid tumor cells. The class given is cell-based. The conditions noted are these: Homo sapiens, 72 h.
Excerpt: as §1, §2

Data set [11] concerns Becap-37 (human breast cancer) cells. As to the kind of experiment: MTT cell growth inhibition, solid tumor cells. It counts as cell-based. The conditions noted are these: Homo sapiens, 72 h.
Excerpt: as §1, §2

The subject of data set [12] is Hep-2 (laryngeal carcinoma) cells. The data set can be described thus: MTT cell growth inhibition, solid tumor cells. It counts as cell-based. The conditions noted are these: Homo sapiens, HEp-2, 72 h.
Excerpt: as §1, §2

Data set [13] relates to MGC-803 (human gastric cancer) cells. The data set can be described thus: MTT cell growth inhibition, solid tumor cells. It counts as cell-based. The conditions noted are these: MGC-803, 72 h.
Excerpt: as §1, §2

The test system of data set [14] is U87-MG (malignant glioma) cells. The data set can be described thus: MTT cell growth inhibition, solid tumor cells. The following applies: Homo sapiens, U-87 MG, 72 h. The class given is cell-based.
Excerpt: as §1, §2

Data set [15] has as its system Hep G2 (human liver cancer) cells. As to the kind of experiment: MTT cell growth inhibition, solid tumor cells. The conditions noted are these: Homo sapiens, HepG2, 72 h. It counts as cell-based.
Excerpt: as §1, §2

Data set [16] has as its system Hela (human cervical cancer) cells. The data set can be described thus: MTT cell growth inhibition, solid tumor cells. The conditions noted are these: Homo sapiens, HeLa, 72 h. It counts as cell-based.
Excerpt: as §1, §2

Data set [17] deals with NB4 (acute promyelocytic leukemia) cells. The data set can be described thus: MTT cell growth inhibition, leukemia cells. The class given is cell-based. The conditions noted are these: Homo sapiens, 72 h. An excerpt:
(§3) Leukemia cell lines: leukemia cell lines: K562adr (drug-resistant, chronic myeloid leukemia, CML), NB4 (acute promyelocytic leukemia, AML), Kasumi-1 (acute myeloid leukemia M2 type, AML-M2), Jurkat (acute lymphoblastic leukemia, ALL), all of which were donated by Cancer Research Institute of Zhejiang University, China; and H9 (acute lymphoblastic leukemia, ALL), which was purchased from China Center for Type Culture Collection.
(§4) Reagents: The standard sample of fangchinoline (FAN) was purchased from Ci Yuan Biotechnology Co., Ltd., Shaanxi, China; and the 7-substituted fangchinoline derivatives according to the present invention.
(§5) 6000 well-growing leukemia cells were obtained and inoculated into wells of a 96-well cell culture plate. The culture medium was a RPMI-1640 cell culture medium containing 10% fetal bovine serum. After adding the 7-substituted fangchinoline derivatives of different concentrations the next day and mixing uniformly, the plate was placed in a carbon dioxide cell incubator (5% CO2) at 37° C. and incubating for 72 hours. Then the viable cell concentration was determined by the MTT method.

Data set [18] deals with K562/ADR (K562adr, drug-resistant chronic myeloid leukemia) cells. As to the kind of experiment: MTT cell growth inhibition, leukemia cells. The class given is cell-based. The conditions noted are these: Homo sapiens, K562/Adr, 72 h.
Excerpt: as §3, §4, §5

Data set [19] has as its system RPMI 8226 (multiple myeloma) cells. The data set can be described thus: MTT cell growth inhibition, multiple myeloma cells. The conditions noted are these: Homo sapiens, RPMI-8226, 72 h. It counts as cell-based, human. The procedure:
Myeloma cell lines: RPMI8226 (multiple myeloma), purchased from Fuxiang Bio-tech Co. Ltd., Shanghai, China.
6000 well-growing cells were obtained and inoculated into wells of a 96-well cell culture plate. The culture medium was a RPMI-1640 cell culture medium containing 10% fetal bovine serum. After adding the 7-substituted fangchinoline derivatives of different concentrations the next day and mixing uniformly, the plate was placed in a carbon dioxide cell incubator (5% CO2) at 37° C. and incubated for 72 hours. Then the viable cell concentration was determined by the MTT method.

Data set [20] concerns Kasumi-1 (acute myeloid leukemia M2 type) cells. As to the kind of experiment: MTT cell growth inhibition, leukemia cells. It counts as cell-based, human. The conditions noted are these: Homo sapiens, Kasumi 1, 72 h.
Excerpt: as §3, §4, §5

In data set [21] the test system is Jurkat (acute lymphoblastic leukemia) cells. The data set can be described thus: MTT cell growth inhibition, leukemia cells. The class given is cell-based, human. The following applies: Homo sapiens, Jurkat, 72 h.
Excerpt: as §3, §4, §5

The test system of data set [22] is H9 (acute lymphoblastic leukemia) cells. As to the kind of experiment: MTT cell growth inhibition, leukemia cells. The class given is cell-based, human. The conditions noted are these: Homo sapiens, 72 h.
Excerpt: as §3, §4, §5

As to `C#Cc1cccc(Nc2ncnc3cc(OCCOC)c(OCCOC)cc23)c1` [Erlotinib hydrochloride, reference compound], in data set [1] (Hep G2 transplanted tumor, Day 28, intragastric 3 times a day for 10 days), the Mass of tumor is 839 ± 270.62 mg. Besides, the “Tumor Inhibition rate” value in data set [1] (Hep G2 transplanted tumor, Day 28, intragastric 3 times a day for 10 days, control = 0) was 34.5%. Besides, the “Body Weight (g) Initial” value in [1] (Hep G2 tumor nude mice, before administration, intragastric 3 times a day, mean±SD) worked out at 21.4 ± 0.26 g. Moreover, the “Body Weight (g) Final” value in data set [1] (Hep G2 tumor nude mice, final, intragastric 3 times a day for 10 days, mean±SD) turned out to be 20.4 ± 1.72 g.

By IC50 is commonly meant the concentration that inhibits the measured activity by half. Read a low IC50 as greater potency in that assay. Usually IC90 stands for the concentration at which the effect reaches the 90% level. The low end stands for an effect from little substance, the high end for a need for much substance. Turning to `COc1ccc2cc1Oc1ccc(cc1)C[C@H]1c3cc(c(OC)cc3CCN1C)Oc1c(O)c(OC)cc3c1[C@H](C2)N(C)CC3` [FAN, Fangchinoline, reference compound], in [2], the “adverse reactions during the administration” value is given as “do not exhibit adverse reactions”. For the same compound, the IC50 in [3] was found to be 2.4 µg/mL (≈ 3.94 µM); in data set [4], 3.61 µg/mL (≈ 5.93 µM); in [5] it was 1.94 µg/mL (≈ 3.19 µM); in data set [6], 3.14 µg/mL (≈ 5.16 µM); in data set [7], 4.08 µg/mL (≈ 6.7 µM); in data set [8] it was 3.26 µg/mL (≈ 5.36 µM). Further, the IC50 turned out to be 1.7 µg/mL (≈ 2.79 µM) in data set [9]; 0.92 µg/mL (≈ 1.51 µM) in data set [10]; 1.79 µg/mL (≈ 2.94 µM) in [11]; 3.6 µg/mL (≈ 5.91 µM) in data set [12]; 1.08 µg/mL (≈ 1.77 µM) in [13]; 1.12 µg/mL (≈ 1.84 µM) in data set [14]. Further, the IC50 in data set [15] was 1.81 µg/mL (≈ 2.97 µM); in data set [16], 1.96 µg/mL (≈ 3.22 µM); in data set [17] it was 0.58 µg/mL (≈ 0.953 µM); in data set [18], 0.36 µg/mL (≈ 0.591 µM); in data set [19], 0.04 µg/mL (≈ 0.0657 µM); in data set [20], 1.11 µg/mL (≈ 1.82 µM). For the same compound, the IC50 was 1.73 µg/mL (≈ 2.84 µM) in data set [21] and 2.4 µg/mL (≈ 3.94 µM) in [22]. Also, the IC90 amounted to 5.7 µg/mL (≈ 9.36 µM) in [3]; 14.5 µg/mL (≈ 23.8 µM) in data set [4]; 8.98 µg/mL (≈ 14.8 µM) in data set [5]; 11.6 µg/mL (≈ 19.1 µM) in [6]; 7.64 µg/mL (≈ 12.6 µM) in data set [7]; 9.81 µg/mL (≈ 16.1 µM) in data set [8]. In addition, the IC90 in data set [9] was found to be 3.7 µg/mL (≈ 6.08 µM); in [10], 3.11 µg/mL (≈ 5.11 µM); in data set [11], 6.2 µg/mL (≈ 10.2 µM); in [12], 10 µg/mL (≈ 16.5 µM); in data set [13], 6.42 µg/mL (≈ 10.5 µM); in [14] it was 3.79 µg/mL (≈ 6.23 µM). Also, the IC90 amounted to 5.23 µg/mL (≈ 8.59 µM) in data set [15]; 6.12 µg/mL (≈ 10.1 µM) in data set [16]; 2.59 µg/mL (≈ 4.25 µM) in [17]; 4.13 µg/mL (≈ 6.78 µM) in data set [18]; 0.5 µg/mL (≈ 0.821 µM) in data set [19]; 4.11 µg/mL (≈ 6.75 µM) in data set [20]. Further, the IC90 in data set [21] was found to be 5.25 µg/mL (≈ 8.62 µM); in [22] it was 6.6 µg/mL (≈ 10.8 µM).
